# Patent publication US7495023B2, “Thio semicarbazone and semicarbozone inhibitors of cysteine proteases and methods of their use” (The Regents of the University of California, priority 2002, dated 2009)
# pIC50: −log10 of the molar value. Entries after “also recorded” stand apart in the source; their conditions may differ. Like-named read-outs stand apart in the source and are kept apart here.
# Tests used:
# T. cruzi parasites = assay: WHO screen against T. cruzi parasites; format: cell-based
# Description: (§1) Thio semicarbazones have been tested against falcipain 2, which is the cysteine protease of parasites related to malaria. […] The WHO (World Health Organization) helped to screen compound 1i against a couple of parasite strains. It has activity against T. cruzi and P. falciparum parasites.
# [1] = Solubility observations (cell culture medium, methanol); format: physicochemical
# T. cruzi (Y strain) = assay: Anti-trypanosomal cell culture assay, T. cruzi-infected J774 macrophages; format: cell-based; settings: for effect on T. cruzi in cell culture (trypanocidal / trypanostatic / inactive): inhibitor 10 μM, cultures up to 30 days
# Method: Drug Screening in Cell Culture. Mammalian cells are routinely cultured in RPMI-1640 medium supplemented with 5-10% heat-inactivated fetal calf serum (FCS) at 37° C. in 5% CO2. The Y strain of T. cruzi is maintained by serial passage in bovine embryo skeletal muscle (BESM) cells. Infectious trypomastigotes are collected from culture supernatants. For drug assays, J774 macrophages were irradiated (5000 rad) and plated onto six-well tissue culture plates 24 h prior to infection with ˜106 trypomastigotes/well. […] Inhibitor stocks (10 mM) in DMSO were stored at 4° C. J774 monolayers treated with a blank containing DMSO are used as a negative control, and monolayers treated with a known trypanocidal inhibitor, 10 μM N-methyl piperazine-Phe-homoPhe-vinyl sulfone phenyl (N-Pip-F-hF-VSPh) acted as a positive control (Engel et al., J. Exp. Med., 188:725-734 (1998)). RPMI medium with or without inhibitor is replaced every 48 h. Cultures are maintained for up to 30 days and monitored daily by contrast phase microscopy. […] The comparative effectiveness of each inhibitor was estimated from plots of the duration of the intracellular cycle of T. cruzi (days) in treated vs untreated control wells.
# parasite P. falciparum = assay: WHO screen against P. falciparum parasites; format: cell-based
# Description: as §1
# J774 macrophages = assay: Toxicity to mammalian host cells in the cell culture assay; format: cell-based
# Method: Drug Screening in Cell Culture. Mammalian cells are routinely cultured in RPMI-1640 medium supplemented with 5-10% heat-inactivated fetal calf serum (FCS) at 37° C. in 5% CO2. The Y strain of T. cruzi is maintained by serial passage in bovine embryo skeletal muscle (BESM) cells. Infectious trypomastigotes are collected from culture supernatants. For drug assays, J774 macrophages were irradiated (5000 rad) and plated onto six-well tissue culture plates 24 h prior to infection with ˜106 trypomastigotes/well. Parasites are removed 2 h postinfection, and the medium is supplemented with the appropriate cysteine protease inhibitor (10 μM). Inhibitor stocks (10 mM) in DMSO were stored at 4° C. J774 monolayers treated with a blank containing DMSO are used as a negative control, and monolayers treated with a known trypanocidal inhibitor, 10 μM N-methyl piperazine-Phe-homoPhe-vinyl sulfone phenyl (N-Pip-F-hF-VSPh) acted as a positive control (Engel et al., J. Exp. Med., 188:725-734 (1998)). RPMI medium with or without inhibitor is replaced every 48 h. Cultures are maintained for up to 30 days and monitored daily by contrast phase microscopy. […] The comparative effectiveness of each inhibitor was estimated from plots of the duration of the intracellular cycle of T. cruzi (days) in treated vs untreated control wells.
# The toxicity of compounds to mammalian host cells was also evaluated in the assay.
# cruzain = cruzain (Trypanosoma cruzi, UniProt P25779); format: biochemical; settings: incubation 90 s to 24 h
# Method: The time dependence of inhibition was determined by incubating cruzain with inhibitors, DMSO, or enzyme alone at room temperature for time points between 90 s and 24 h. The enzymatic activity was determined as above.
# A known irreversible inhibitor, K002 (morpholino urea-Phe-homoPhe-vinyl sulfone benzene; Axys Pharmaceuticals Inc., South San Francisco, Calif.), and a known reversible covalent inhibitor, leupeptin, were used as controls for the thio semicarbazones.
# [2] = target: T. cruzi cathepsin L-like protease (cruzain) (Trypanosoma cruzi, UniProt P25779); assay: biochemical
# Method: (§2) IC50 Determinations. Inhibitors were screened for effectiveness against the T. cruzi cathepsin L-like protease (cruzain) using purified recombinant protein. Cruzain (1 nM) was incubated with 20-50000 nM inhibitor in 100 mM sodium acetate-5 mM DTT buffer (pH 5.50, buffer A) for 5 min at room temperature. […] The increase in fluorescence (excitation at 355 nm and emission at 460 nm) was followed with an automated microtiter plate spectrofluorimeter (Molecular Devices, spectraMAX Gemini). Inhibitor stock solutions were prepared at 20 mM in DMSO, and serial dilutions were made in DMSO (0.7% DMSO in assay). Controls were performed using enzyme alone and enzyme with DMSO. IC50 values were determined graphically using inhibitor concentrations in the linear portion of a plot of inhibition versus log [I] (seven concentrations were tested, and at least two were in the linear range).
# human cathepsin B = human cathepsin B (Homo sapiens, UniProt P07858); assay: Inhibition of cathepsin B protease activity; format: biochemical
# Method: as §2, with “protein.” for “protein. Cruzain (1 nM) was incubated with 20-50000 nM inhibitor in 100 mM sodium acetate-5 mM DTT buffer (pH 5.50, buffer A) for 5 min at room temperature.”
# Enzyme assays to test the ability of thio semicarbazone compounds to inhibit the cysteine protease activity of rhodesain and cathepsin B were carried out as described for assays to test inhibition of protease activity by cruzain. In these assays, inhibition of cruzain is included as a positive control.
# T. cruzi [3] = settings: mouse model; cited from earlier work
# T. cruzi [4] = settings: cited from earlier work
# falcipain-2 = target: T1, falcipain-2 (Plasmodium falciparum, UniProt Q8I6U4); assay: Inhibition of falcipain-2; format: biochemical
# T1 sequence (Q8I6U4 244-484): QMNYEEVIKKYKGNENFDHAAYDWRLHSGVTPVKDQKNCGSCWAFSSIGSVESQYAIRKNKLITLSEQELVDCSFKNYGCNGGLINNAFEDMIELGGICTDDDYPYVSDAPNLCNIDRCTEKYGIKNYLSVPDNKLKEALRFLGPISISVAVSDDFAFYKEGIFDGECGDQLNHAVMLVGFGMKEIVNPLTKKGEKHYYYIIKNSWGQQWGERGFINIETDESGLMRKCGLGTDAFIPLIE
# Description: as §1
# [5] = 5 min incubation, room temperature, pH 5.50, read-out: IC50 against cruzain
# Sequence of T. cruzi cathepsin L-like protease (cruzain) (P25779 123-467): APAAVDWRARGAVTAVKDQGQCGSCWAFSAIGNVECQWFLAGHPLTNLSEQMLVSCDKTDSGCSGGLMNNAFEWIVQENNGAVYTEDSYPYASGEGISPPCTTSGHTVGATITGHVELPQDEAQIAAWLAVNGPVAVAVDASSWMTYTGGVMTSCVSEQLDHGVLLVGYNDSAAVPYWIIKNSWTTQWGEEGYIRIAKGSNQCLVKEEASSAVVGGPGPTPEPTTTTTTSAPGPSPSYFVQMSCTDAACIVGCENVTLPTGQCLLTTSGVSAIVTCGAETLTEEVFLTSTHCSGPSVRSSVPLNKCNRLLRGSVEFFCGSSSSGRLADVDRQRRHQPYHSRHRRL
# Sequence of cruzain (P25779 123-467): as above
compound,measurement,setting,value
"CCC(=NNC(N)=S)c1cccc(Br)c1 [Compound 1i, 3′-Bromopropiophenone Thio Semicarbazone]",activity against T. cruzi parasites,T. cruzi parasites,has activity
same,"solubility in the cell culture medium, in words",[1],without toxicity to host cells or solubility problems
same,effect on T. cruzi in cell culture (trypanocidal / trypanostatic / inactive),T. cruzi (Y strain),significant trypanocidal activity; also recorded: cured of trypanosomal infection; also recorded: trypanocidal effect
same,time postinfection that cells stayed healthy and parasite-free,"T. cruzi (Y strain); treated for three weeks, then compound removed, experiment terminated",≥ 6.5 weeks
same,pIC50,parasite P. falciparum; Plasmodium falciparum,4.49 to 4.80
same,activity against P. falciparum parasites,parasite P. falciparum; WHO screen,has activity
same,"toxicity to host cells, in words",J774 macrophages,without toxicity to host cells
same,time dependence of cruzain inhibition,cruzain,time-dependent
"NC(=S)NN=Cc1ccc(-c2ccc(Br)cc2)o1 [Compound 1f, 5-(4-Bromophenyl)-2-furancarboxaldehyde Thio Semicarbazone]",pIC50,[2]; [5],> 6.52
same,"solubility in the cell culture medium, in words",[1],crystallized in the cell culture medium
same,survival of infected host cells / duration of trypanostatic effect,"T. cruzi (Y strain); inhibitor 10 μM (method), untreated infected cells die within 5 days",14 days
same,effect on T. cruzi in cell culture (trypanocidal / trypanostatic / inactive),T. cruzi (Y strain),trypanostatic
"NC(=S)NN=Cc1ccc(-c2ccc(Cl)cc2)o1 [Compound 1b, 5-(4-Chlorophenyl)-2-furancarboxaldehyde Thio Semicarbazone]",pIC50,[2]; [5],> 6.52
same,"solubility in the cell culture medium, in words",[1],solubility (1b) appears to be a problem
"NC(=S)NN=Cc1ccc(-c2cccc(Cl)c2)o1 [Compound 1e, 5-(3-Chlorophenyl)-2-furancarboxaldehyde Thio Semicarbazone]",pIC50,[2]; [5],> 6.52
same,survival of infected host cells,"T. cruzi (Y strain); compound at 5 μM, untreated infected cells die within 5 days",10 days
same,effect on T. cruzi in cell culture (trypanocidal / trypanostatic / inactive),T. cruzi (Y strain),trypanostatic
same,concentration at which toxicity to host cells was observed,J774 macrophages,10 µM
same,melting point,,198.8 to 199.8 °C
"CC(=NNC(N)=S)c1cccc(Br)c1 [Compound 3b, 3′-Bromoacetophenone Thio Semicarbazone]",pIC50,[2]; [5],6.70
same,effect on T. cruzi in cell culture (trypanocidal / trypanostatic / inactive),T. cruzi (Y strain),trypanocidal effect
same,time dependence of cruzain inhibition,cruzain,time-dependent
"COc1ccc2ccccc2c1C=NNC(N)=S [Compound 1n, 2-Methoxy-1-naphthaldehyde Thio Semicarbazone]",pIC50,[2]; [5],6.25
same,"toxicity to host cells, in words",J774 macrophages,Toxicity
"NC(=S)N1CCC(c2cccc(Br)c2)=N1 [Compound 4a, 3-(3-Bromophenyl)-2-pyrazoline-1-thiocarboxamide]",decrease in activity as compared to 1i (cruzain),[2]; compared to 1i,2 fold
same,melting point,,172.9 to 174.5 °C
same,time dependence of cruzain inhibition,cruzain,time-dependent
"CC1CN(C(N)=S)N=C1c1ccc(Cl)c(Cl)c1 (centres unmarked) [Compound 4f, 3-(3,4-Dichlorophenyl)-4-methyl-2-pyrazoline-1-thiocarboxamide]","cruzain inhibitory activity, in words",[2],better than that of 1i
same,"solubility in methanol, in words",[1]; methanol,poorest solubility in methanol
same,effect on T. cruzi in cell culture (trypanocidal / trypanostatic / inactive),T. cruzi (Y strain),trypanostatic
"CC1CN(C(N)=S)N=C1c1cccc(Br)c1 (centres unmarked) [Compound 4b, 3-(3-Bromophenyl)-4-methyl-2-pyrazoline-1-thiocarboxamide]","cruzain inhibitory activity, in words",[2],better than that of 1i
same,pIC50,[2]; [5],7.10
same,effect on T. cruzi in cell culture (trypanocidal / trypanostatic / inactive),T. cruzi (Y strain),trypanocidal effect
same,melting point,,107.4 to 109.9 °C
same,time dependence of cruzain inhibition,cruzain,time-dependent
"O=C(N[C@H](/C=C/S(=O)(=O)c1ccccc1)CCc1ccccc1)[C@H](Cc1ccccc1)NC(=O)N1CCOCC1 [Compound K002, morpholino urea-Phe-homoPhe-vinyl sulfone benzene]",IC50,"human cathepsin B; read-out: cathepsin B IC50 (μM) 5 min preincubation, 5 min preincubation",0.5 µM
same,IC50,"human cathepsin B; read-out: cathepsin B IC50 (μM) 30 min preincubation, 30 min preincubation",< 0.1 µM
same,time dependence of cruzain inhibition,cruzain,rapidly time-dependent
"CN1CCN(C(=O)NC(Cc2ccccc2)C(=O)NC(C=CS(=O)(=O)c2ccccc2)CCc2ccccc2)CC1 (centres unmarked) [N-Pip-F-hF-VSPh, N-methyl piperazine-Phe-homoPhe-vinyl sulfone phenyl, reference compound]",outcome of treatment of T. cruzi-infected mice,T. cruzi [3],resulted in a cure
same,effect on T. cruzi in cell culture (trypanocidal / trypanostatic / inactive),T. cruzi (Y strain),unable to survive
benzyloxy-carbonyl-L-phenylalanyl L-alanine fluoromethyl ketone [Z-Phe-Ala-FMK],effect on replication and differentiation of T. cruzi in cultures,T. cruzi [4],blocks replication and differentiation of the parasite
"COc1ccccc1-c1ccc(C=NNC(N)=S)o1 [Compound 1c, 5-(2-Methoxyphenyl)-2-furancarboxaldehyde Thio Semicarbazone]",pIC50,[2],> 6.52
same,"toxicity to host cells, in words",J774 macrophages,Toxicity
same,melting point,,209.5 to 211.1 °C
"NC(=S)NN=Cc1cccc(Br)c1 [Compound 3a, 3-Bromobenzaldehyde Thio Semicarbazone]",pIC50,[2]; [5],5.89
same,time dependence of cruzain inhibition,cruzain,time-dependent
"CCC(=NNC(N)=S)c1ccc(Cl)c(Cl)c1 [Compound 2i, 3′,4′-Dichloropropiophenone Thio Semicarbazone]","cruzain inhibitory activity, in words",[2],better IC50 values than 1i
same,pIC50,[2]; [5],7.70
same,increase in activity over 1i (cruzain),[2]; compared to 1i,~5 fold
same,pIC50,falcipain-2,6.82
